In patent US20240376076A1, “INHIBITORS TARGETING UBIQUITIN SPECIFIC PROTEASE 7 (USP7)” (Dana-Farber Cancer Institute, Inc., priority 2021, published 2024):
Where a name gives a salt, the structure may show the parent alone.

molecular target: T1, USP7, Active human recombinant protein (Homo sapiens, UniProt Q93009); assay: USP7 assay (Ubiquitin-Rhodamine 110 enzymatic assay); type: biochemical; details: read-out: IC50
T1 construct: purchased CP Lot; 20200225001
Experimental: Enzymatic Assays with Exemplary USP7 Irreversible Inhibitors
ND refers to not disclosed.
USP7, Active human recombinant protein (CP, Lot. 20200225001), Ubiquitin-Rhodamine 110 (Rh110) (BostonBiochem, Cat. No. U-555), DMSO (Sigma, Cat. N34869), DTT (Sangon Biotech, Cat. No. A620058-0005), […] Tris pH 8.0 (Sigma, Cat. No. T2694-1L), Tween-20 (Sigma, Cat. No. P2287-100ML), EDTA (Invitrogen, Cat. No. 15575020, BSA (Sigma, Cat. No. B2064-100G), 384-well assay plate (Corning, Cat. No. 3573), Echo Qualified 384-Well Polypropylene Microplate 2.0, Clear, Flat Bottom (LABCYTE, Cat. No. 001-14555).
Dilute the compounds to 400× of the final desired highest inhibitor concentration in reaction by 100% DMSO. For all compounds, transfer the compounds to one well in a 384-well Echo plate and serially dilute the compound by 3-fold dilution of 100% DMSO in the next well and so forth for a total of 10 concentrations by Precision. Add 30 μL of 100% DMSO to two empty wells for no compound control and no enzyme control in the same 384-well Echo plate. Make the plate as a source plate.
For USP7 assay, transfer 50 nL of each well from the source plate to a 384-well assay plate (OptiPlate TM-384 F black assay plates) by Echo 550 Liquid Handler.
Added appropriate amount of USP7 in 1× assay Buffer to prepare 2× enzyme solution (USP7 final concentration: 0.05 nM). Added appropriate amount of Ubiquitin-Rhodamine 110 in 1× assay Buffer to prepare 2× substrate solution (Ubiquitin-Rhodamine 110 final concentration: 190 nM). Added 10 μL of 2× enzyme solution to each reaction well of the 384-well assay plate, except for control wells without enzyme (add 10 μL of 1× Assay Buffer instead as for low control). […] Transferred 2× substrate solution to the assay plate. Added 10 μL of 2× substrate solution to each well of the 384-well assay plate to start reaction. Centrifuged at 1000 rpm for 1 min. Read the plate kinetically on SpectraMax Paradigm for 20 min with excitation at 485 nm and emission at 535 nm. Copied raw data (slope) from Reader to obtain inhibition values in Excel using equation (1): […]
Max signal was obtained from the action of Enzyme and Substrate. Min signal was obtained from the Substrate only. To fit the data in XLFit excel add-in version 5.4.0.8 to obtain IC50 values used equation (2): […]
Y is % inhibition and X is compound concentration.

T1 sequence (Q93009 whole entry): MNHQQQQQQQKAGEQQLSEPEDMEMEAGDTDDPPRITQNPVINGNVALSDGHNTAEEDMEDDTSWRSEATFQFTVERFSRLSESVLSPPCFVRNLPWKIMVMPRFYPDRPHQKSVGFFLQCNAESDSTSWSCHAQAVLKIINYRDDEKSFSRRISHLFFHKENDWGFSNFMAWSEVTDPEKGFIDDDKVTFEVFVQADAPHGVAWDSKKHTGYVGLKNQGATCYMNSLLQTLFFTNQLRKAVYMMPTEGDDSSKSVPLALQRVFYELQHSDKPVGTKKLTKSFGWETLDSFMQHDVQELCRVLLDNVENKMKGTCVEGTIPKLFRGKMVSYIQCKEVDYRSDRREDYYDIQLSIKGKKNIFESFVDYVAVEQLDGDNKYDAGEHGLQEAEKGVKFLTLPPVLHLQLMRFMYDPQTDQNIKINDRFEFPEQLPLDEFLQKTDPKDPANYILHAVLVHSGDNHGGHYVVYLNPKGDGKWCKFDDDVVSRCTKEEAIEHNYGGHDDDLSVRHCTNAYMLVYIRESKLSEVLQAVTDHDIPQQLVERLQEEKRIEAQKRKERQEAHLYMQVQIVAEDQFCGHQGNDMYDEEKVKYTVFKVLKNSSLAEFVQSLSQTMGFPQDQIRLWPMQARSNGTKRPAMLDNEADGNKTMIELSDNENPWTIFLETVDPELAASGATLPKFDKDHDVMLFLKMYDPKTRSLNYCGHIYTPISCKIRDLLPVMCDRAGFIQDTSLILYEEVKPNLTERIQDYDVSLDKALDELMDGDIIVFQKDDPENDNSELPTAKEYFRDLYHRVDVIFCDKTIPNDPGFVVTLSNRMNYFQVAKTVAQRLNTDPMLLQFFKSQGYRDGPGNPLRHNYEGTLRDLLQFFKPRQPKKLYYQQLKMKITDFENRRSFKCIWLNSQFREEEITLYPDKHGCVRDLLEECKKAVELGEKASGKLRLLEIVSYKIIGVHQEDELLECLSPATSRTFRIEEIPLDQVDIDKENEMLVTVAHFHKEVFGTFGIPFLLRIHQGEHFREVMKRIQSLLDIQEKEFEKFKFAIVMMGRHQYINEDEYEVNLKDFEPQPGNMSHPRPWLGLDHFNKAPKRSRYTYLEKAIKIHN

| SMILES | IC50 |
| --- | --- |
| CN1CCN(CCC(=O)Nc2ccc3c(=O)n(CC4(O)CCN(C(=O)C(CCCNC(=O)c5ccc6c(Cl)c7c(nc6c5)CCCC7)Cc5ccccc5)CC4)cnc3c2)CC1 (stereo not drawn) | < 0.02 µM |
| CN1CCN(CCC(=O)Nc2ccc3c(=O)n(CC4(O)CCN(C(=O)[C@H](CCCNC(=O)c5ccc6c(Cl)c7c(nc6c5)CCCC7)Cc5ccccc5)CC4)cnc3c2)CC1 | 0.1 to 1 µM |
| O=C(NCCC1CC[C@@H](C(=O)N2CCC(O)(Cn3cnc4cc(-c5ncc(CN6CCNCC6)o5)ccc4c3=O)CC2)[C@H](c2ccccc2)C1)c1ccc2c(Cl)ccnc2c1 (stereo partly drawn) | 0.02 to 0.1 µM |
| C=CC(=O)Nc1ccc(C#N)cc1N1CCC(C(=O)N2CCC(O)(Cn3cnc4cc(NC(=O)CCN5CCN(C)CC5)ccc4c3=O)CC2)C(c2ccccc2)C1 (stereo not drawn) | > 1 µM |
| CN(C)CCCOc1ccc2c(=O)n(CC3(O)CCN(C(=O)[C@@H](CCCNC(=O)c4ccc5c(Cl)c(CO)cnc5c4)Cc4ccccc4)CC3)cnc2c1 | < 0.02 µM |
| CN(C)CCCOc1ccc2c(=O)n(CC3(O)CCN(C(=O)C(Cn4ccc(F)n4)N(C)CCNC(=O)c4ccc5c(Cl)cc(C6CC6)nc5c4)CC3)cnc2c1 (stereo not drawn) | 0.1 to 1 µM |
| CN(C)CCCOc1ccc2c(=O)n(CC3(O)CCN(C(=O)C(Cc4ccccc4)N(C)CCNC(=O)c4ccc5c(Cl)cc(C6CC6)nc5c4)CC3)cnc2c1 (stereo not drawn) | 0.1 to 1 µM |
| CN1CCN(CCC(=O)Nc2ccc3c(=O)n(CC4(O)CCN(C(=O)[C@H](CCCNC(=O)c5ccc6c(Cl)cc(-c7ccc(F)cc7)nc6c5)Cc5ccccc5)CC4)cnc3c2)CC1 [Compound 4, (R)—N-(4-benzyl-5-(4-hydroxy-4-((7-(3-(4-methylpiperazin-1-yl)propanamido)-4-oxoquinazolin-3(4H)-yl)methyl)piperidin-1-yl)-5-oxopentyl)-4-chloro-2-(4-fluorophenyl)quinoline-7-carboxamide] | > 1 µM |
| Nc1cccc(-n2ncc3c(=O)n(CC4(O)CCN(C(=O)C(CCCNC(=O)c5ccc6c(Cl)ccnc6c5)Cc5ccccc5)CC4)cnc32)c1 (stereo not drawn) [Compound 8, N-(5-(4-((1-(3-aminophenyl)-4-oxo-1H-pyrazolo[3,4-d]pyrimidin-5(4H)-yl)methyl)-4-hydroxypiperidin-1-yl)-4-benzyl-5-oxopentyl)-4-chloroquinoline-7-carboxamide] | 0.02 to 0.1 µM |
| N[C@@H](c1ccc(-n2ncc3c(=O)n(CC4(O)CCN(C(=O)C(CCCNC(=O)c5ccc6c(Cl)ccnc6c5)Cc5ccccc5)CC4)cnc32)cc1)C(F)(F)F (stereo partly drawn) [Compound 9, N-(5-(4-((1-(4-(1-amino-2,2,2-trifluoroethyl)phenyl)-4-oxo-1H-pyrazolo[3,4-d]pyrimidin-5(4H)-yl)methyl)-4-hydroxypiperidin-1-yl)-4-benzyl-5-oxopentyl)-4-chloroquinoline-7-carboxamide] | 0.02 to 0.1 µM |
| O=C(NCCC[C@H](Cc1ccccc1)C(=O)N1CCC(O)(Cn2cnc(NCCN3CCCC3)cc2=O)CC1)c1ccc2c(Cl)ccnc2c1 [Compound 12, N-(4-benzyl-5-(4-hydroxy-4-((6-oxo-4-(2-(pyrrolidin-1-yl)ethylamino)pyrimidin-1(6H)-yl)methyl)piperidin-1-yl)-5-oxopentyl)-4-chloroquinoline-7-carboxamide] | > 1 µM |
| CN1CCN(CCC(=O)Nc2ccc3c(=O)n(CC4(O)CCN(C(=O)C(CCCNC(=O)c5ccc6c(Cl)cc(-c7cccnc7)nc6c5)Cc5ccccc5)CC4)cnc3c2)CC1 (stereo not drawn) [Compound 14, N-(4-benzyl-5-(4-hydroxy-4-((7-(3-(4-methylpiperazin-1-yl)propanamido)-4-oxoquinazolin-3(4H)-yl)methyl)piperidin-1-yl)-5-oxopentyl)-4-chloro-2-(pyridin-3-yl)quinoline-7-carboxamide] | 0.1 to 1 µM |
| CN1CCN(CCC(=O)Nc2ccc3c(=O)n(CC4(O)CCN(C(=O)C(CCCNC(=O)c5ccc6c(Cl)cc(-c7cccc(C(F)(F)F)c7)nc6c5)Cc5ccccc5)CC4)cnc3c2)CC1 (stereo not drawn) [Compound 15, N-(4-benzyl-5-(4-hydroxy-4-((7-(3-(4-methylpiperazin-1-yl)propanamido)-4-oxoquinazolin-3(4H)-yl)methyl)piperidin-1-yl)-5-oxopentyl)-4-chloro-2-(3-(trifluoromethyl)phenyl)quinoline-7-carboxamide] | 0.1 to 1 µM |
| CN1CCN(CCC(=O)Nc2ccc3c(=O)n(CC4(O)CCN(C(=O)C(CCCNC(=O)c5ccc6c(Cl)cc(-c7cccc(C#N)c7)nc6c5)Cc5ccccc5)CC4)cnc3c2)CC1 (stereo not drawn) [Compound 16, N-(4-benzyl-5-(4-hydroxy-4-((7-(3-(4-methylpiperazin-1-yl)propanamido)-4-oxoquinazolin-3(4H)-yl)methyl)piperidin-1-yl)-5-oxopentyl)-4-chloro-2-(3-cyanophenyl)quinoline-7-carboxamide] | 0.1 to 1 µM |
| CN1CCN(CCC(=O)Nc2ccc3c(=O)n(CC4(O)CCN(C(=O)C(CCCNC(=O)c5ccc6c(Cl)cc(-c7cccc(CN)c7)nc6c5)Cc5ccccc5)CC4)cnc3c2)CC1 (stereo not drawn) [Compound 17, 2-(3-(aminomethyl)phenyl)-N-(4-benzyl-5-(4-hydroxy-4-((7-(3-(4-methylpiperazin-1-yl)propanamido)-4-oxoquinazolin-3(4H)-yl)methyl)piperidin-1-yl)-5-oxopentyl)-4-chloroquinoline-7-carboxamide hydrochloride] | 0.02 to 0.1 µM |
| CN1CCN(CCC(=O)Nc2ccc3c(=O)n(CC4(O)CCN(C(=O)[C@H](CCCNC(=O)c5ccc6c(Cl)cc(-c7cnn(CC(F)(F)F)c7)nc6c5)Cc5ccccc5)CC4)cnc3c2)CC1 [Compound 19] | > 1 µM |
| CCS(=O)(=O)Nc1ccccc1-c1ccc(C(=O)N2CCC(O)(Cn3cnc4cc(NC(=O)CCN5CCN(C)CC5)ccc4c3=O)CC2)cc1 [Compound 25] | > 1 µM |
| C=CS(=O)(=O)NCc1cccc(C(=O)N2CCC(O)(Cn3cnc4cc(NC(=O)CCN5CCN(C)CC5)ccc4c3=O)CC2)c1 [Compound 26, N-(3-((4-hydroxy-1-(3-(vinylsulfonamidomethyl)benzoyl)piperidin-4-yl)methyl)-4-oxo-3,4-dihydroquinazolin-7-yl)-3-(4-methylpiperazin-1-yl)propanamide] | > 1 µM |
| CN1CCN(CCn2ncc3ncn(CC4(O)CCN(C(=O)C(CCCNC(=O)c5ccc6c(Cl)ccnc6c5)Cc5ccccc5)CC4)c(=O)c32)CC1 (stereo not drawn) [Compound 28] | > 1 µM |
| CN(C)CC(=O)Nc1ccc2c(=O)n(CC3(O)CCN(C(=O)[C@H]4CC[C@@H](NC(=O)c5ccc6c(Cl)ccnc6c5)CC4)CC3)cnc2c1 [Compound 34, 4-chloro-N-((1s,4s)-4-(4-((7-(2-(dimethylamino)acetamido)-4-oxoquinazolin-3(4H)-yl)methyl)-4-hydroxypiperidine-1-carbonyl)cyclohexyl)quinoline-7-carboxamide] | > 1 µM |
| CN(C)CC(=O)Nc1ccc2c(=O)n(CC3(O)CCN(C(=O)[C@H]4CC[C@H](NC(=O)c5ccc6c(Cl)ccnc6c5)CC4)CC3)cnc2c1 [Compound 35, 4-chloro-N-((1R,4R)-4-(4-((7-(2-(dimethylamino)acetamido)-4-oxoquinazolin-3(4H)-yl)methyl)-4-hydroxypiperidine-1-carbonyl)cyclohexyl)quinoline-7-carboxamide] | > 1 µM |
| CN(C)CC(=O)Nc1ccc2c(=O)n(CC3(O)CCN(C(=O)C4CCCC(NC(=O)c5ccc6c(Cl)ccnc6c5)C4)CC3)cnc2c1 (stereo not drawn) [Compound 36, 4-chloro-N-(3-(4-((7-(2-(dimethylamino)acetamido)-4-oxoquinazolin-3(4H)-yl)methyl)-4-hydroxypiperidine-1-carbonyl)cyclohexyl)quinoline-7-carboxamide] | > 1 µM |
| Cn1c(=O)n(CC2(O)CCN(C(=O)C(CCCNC(=O)c3ccc4c(Cl)ccnc4c3)Cc3ccccc3)CC2)c2cnccc21 (stereo not drawn) [Compound 37, N-(4-benzyl-5-(4-hydroxy-4-((1-methyl-2-oxo-1H-imidazo[4,5-c]pyridin-3(2H)-yl)methyl)piperidin-1-yl)-5-oxopentyl)-4-chloroquinoline-7-carboxamide] | > 1 µM |
| CN1CCN(CCOc2ccc3ncn(CC4(O)CCN(C(=O)C(CCCNC(=O)c5ccc6c(Cl)ccnc6c5)Cc5ccccc5)CC4)c(=O)c3c2)CC1 (stereo not drawn) [Compound 38, N-(4-benzyl-5-(4-hydroxy-4-((6-(2-(4-methylpiperazin-1-yl)ethoxy)-4-oxoquinazolin-3(4H)-yl)methyl)piperidin-1-yl)-5-oxopentyl)-4-chloroquinoline-7-carboxamide] | > 1 µM |
